Experimental data: publication PMC3631453 (ACS chemical biology, 2013)
Marks after values point to notes of the source that are not given here.

Key:
[1] = target: ERβ (Homo sapiens, UniProt Q92731); test: ER-regulated reporter gene; details: U2OS, read-out: Hormonal activity (U2OS Cells) ERβ IA (intrinsic activity)
[2] = target: full-length human ERβ (Homo sapiens, UniProt Q92731); details: relative to E2 = 100%; cited from earlier work
[3] = system: U2OS cells; test: Cell density of transfected U2OS cells; format: cell-based
[4] = system: MCF-7; test: Growth inhibition of ER-positive MCF-7 cells, 96h; format: cell-based; details: read-out: Growth inhibition IC50 after 96h MCF7, OHT ligands
[5] = system: MDA-MB-231; test: Growth inhibition of ER-negative MDA-MB-231 cells, 96h; format: cell-based; details: read-out: Growth inhibition IC50 after 96h MDA-MB-231, OHT ligands

Sequence of ERβ (Q92731 whole entry): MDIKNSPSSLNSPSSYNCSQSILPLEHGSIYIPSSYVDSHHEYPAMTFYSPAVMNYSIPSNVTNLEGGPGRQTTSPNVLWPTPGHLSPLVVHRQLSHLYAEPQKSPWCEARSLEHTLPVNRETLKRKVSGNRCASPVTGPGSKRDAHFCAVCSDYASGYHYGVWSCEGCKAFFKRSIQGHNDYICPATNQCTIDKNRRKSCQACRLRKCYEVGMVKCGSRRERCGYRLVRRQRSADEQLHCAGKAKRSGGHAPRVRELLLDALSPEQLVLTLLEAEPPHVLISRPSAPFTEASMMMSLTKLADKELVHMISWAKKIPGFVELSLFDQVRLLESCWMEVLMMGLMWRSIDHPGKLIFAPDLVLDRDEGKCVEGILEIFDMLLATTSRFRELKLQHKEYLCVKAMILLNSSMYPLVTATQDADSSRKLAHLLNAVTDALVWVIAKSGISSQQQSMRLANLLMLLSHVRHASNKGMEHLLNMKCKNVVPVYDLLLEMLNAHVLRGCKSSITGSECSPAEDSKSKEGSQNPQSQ
Sequence of full-length human ERβ (Q92731 whole entry): as above

| Emax [1] | Hormonal activity (U2OS Cells) ERα CD (cell density) ([3]; 10nM) | Hormonal activity (U2OS Cells) ERβ CD (cell density) ([3]; 10nM) | IC50 [4] | IC50 [5] | Hormonal activity (U2OS Cells) ERα CD (cell density) ([3]; 1μM) | Hormonal activity (U2OS Cells) ERβ CD (cell density) ([3]; 1μM) | Compound | RBA for ERβ [2] |
| --- | --- | --- | --- | --- | --- | --- | --- | --- |
| 111% | 103% | 90% |  |  |  |  | CC/C(=C(/CC)c1ccc(O)cc1)c1ccc(O)cc1 [DES, diethylstilbestrol] | 278 ± 54 ^f % |
|  |  |  | 0.15 µM | 4.59 µM | 110% | 92% | CC/C(=C(\c1ccc(O)cc1)c1ccc(OCCN(C)C)cc1)c1ccccc1 [OHT, hydroxytamoxifen] |  |
